Results: ChEMBL document CHEMBL1127210, “Synthesis of 5-glycosylamino pyrimidines. A new class of compounds with potential anti-aids activity” (Bioorg Med Chem Lett, 1993)

Columns and labels:
CCRF-CEM [1] = experiment: (§1) In vitro inhibitory activity against HIV infected T4 lymphocytes (CEM cell line); format: functional, cell-based; conditions: Homo sapiens
CCRF-CEM [2] = experiment: as §1; format: functional, cell-based, Homo sapiens
[3] = Therapeutic index (IC50/EC50) was determined
CCRF-CEM [4] = experiment: Tested for in vitro anti HIV activity against T4 lymphocytes (CEM cell lines) and effective concentration was reported; format: functional, cell-based; conditions: Homo sapiens

| EC50 (CCRF-CEM [1]) [µM] | IC50 (CCRF-CEM [2]; Homo sapiens, CCRF-CEM) [µM] | EC50 (CCRF-CEM [4]) [µM] | IC50 (CCRF-CEM [2]; ccrf-cem) [µM] | Structure (SMILES) | selectivity ratio [3] |
| --- | --- | --- | --- | --- | --- |
| 64 | > 830 | – | – | COc1nc(N)c(NC2O[C@H](CO)[C@@H](O)[C@H]2O)c(=O)n1C (some centres undefined) | > 13 |
| – | 220 | 140 | – | COc1nc(N)c(NC2O[C@H](CO)[C@H](O)[C@H]2O)c(=O)n1C (some centres undefined) | > 1.6 |
| – | > 580 | – | – | COc1nc(N[C@H]2OC[C@@H](O)[C@H](O)[C@H]2O)c(NC2O[C@@H](CO)[C@@H](O)[C@@H]2O)c(=O)n1C (some centres undefined) | – |
| – | – | – | > 890 | COc1nc2nc(C(O)C(O)CO)cnc2c(=O)n1C (stereo in doubt; 10) | – |
| – | – | – | > 220 | COc1nc2nc(C(O)C(O)CO)cnc2c(=O)n1C (stereo in doubt; 11) | – |
